Data reported in paper PMC12424289, “Programmable Nanostructure Assembly of a Paclitaxel Derivative Enables Tunable Anticancer Therapy via Hydrogen Bond Engineering” (ACS Nano, 2025).

Assays:
[1] = Pharmacokinetics after intraperitoneal injection; format: in vivo; conditions: male, Sprague-Dawley, rat, plasma; rats, single ip; PTP@HA 100.0 mg·kg^–1 PTP, PTX solution 12.0 mg·kg^–1
Experimental: For plasma samples, 50 μL of plasma was mixed with 100 μL of a docetaxel acetonitrile solution (15 ng·mL^–1) for protein precipitation. The mixture was vortexed and then centrifuged at 4 °C, 17 000 rpm for 30 min. For tissue samples, mice were euthanized at specified time points, and tissues were harvested and rinsed with saline. Two kidneys, the entire heart, spleen, lung, tumor, and 150–200 mg of liver were placed in grinding tubes. Saline was added at a ratio of 1:5 (m/v), and the tissues were ground using a freezing grinder (Jingxin, China) at 4 °C. Next, 100 μL of docetaxel acetonitrile solution (15 ng·mL^–1) was added to 50 μL of the tissue homogenate. After vortex mixing, the mixture was centrifuged at 4 °C, 17 000 rpm for 30 min. The supernatants for both plasma and tissue samples were analyzed by LC-MS as described below.
The concentrations of PTP and PTX in plasma and tissue samples were determined using liquid chromatography–mass spectrometry (LC-MS) with a G6470A system (Agilent, USA) equipped with a C18 column (2.1 × 100 mm, 2.7 μm, Agilent, USA). […]
The PTP@HA hydrogel, containing PTP at a concentration of 5.0 mg·mL^–1, was prepared by adding HA saline solution (20.0 mg·mL^–1) to solid PTP, followed by vortexed for 1 min. […] Plasma concentrations of both PTP and PTX were subsequently quantified using LC-MS (G6470A, Agilent, USA).

[2] = test system: human colon HCT116-Luc cells; assay: CCK8 antiproliferation assay, HCT116-Luc; format: cell-based; conditions: 48 h treatment
Experimental: (§1) The mouse breast cancer cell line 4T1 and the human ovarian cancer cell line SKOV3 were cultured in RPMI 1640 medium supplemented with 10% fetal bovine serum, 100 units·mL^–1 penicillin, and 100 μg·mL^–1 streptomycin. The human lung cancer cell line A549 and the luciferase-expressing human colorectal carcinoma cell line HCT116-Luc were cultured in high-glucose DMEM medium supplemented with 10% fetal bovine serum, 100 units·mL^–1 penicillin, and 100 μg·mL^–1 streptomycin. All cell lines were maintained at 37 °C in a Steri-Cycle 371 incubator (Thermo Scientific, USA) with a humidified atmosphere of 5% CO2. Only cells between passages 5 and 15 were used for cell-based experiments.
(§2) The antiproliferative activity of PTP was evaluated using the Cell Counting Kit-8 (CCK8) assay. PTX solution served as a positive control. Cell suspensions were prepared at a density of 3 × 10^4 cells·mL^–1 and seeded in 96-well plates at a volume of 100 μL per well. The plates were incubated for 24 h to allow cell attachment and growth. Subsequently, the culture media were replaced with fresh media containing varying concentrations of PTX or PTP solutions (100 μL per well), and the cells were incubated for an additional 48 h (n = 3). Control wells received fresh culture media alone (n = 3). […] Finally, the absorbance was measured at 450 nm using a microplate reader (Synergy H1, BioTek, USA). […]

[3] = test system: human ovarian SKOV3 cells; assay: CCK8 antiproliferation assay, SKOV3; format: cell-based; conditions: SK-OV-3, SKOV3, 48 h treatment
Experimental: as §1, §2

[4] = test system: tubulin; assay: Isothermal titration calorimetry with tubulin; format: binding; conditions: tubulin 180 μM titrated into 25 μM compound
Experimental: ITC experiments were performed using a Nano-ITC (TA Instruments, USA) with all samples degassed for 8 min prior to measurement. Experiments were conducted under stirring at 350 rpm. To account for background signals, control experiments were conducted and subtracted from the test data. The resulting heat values were analyzed using an independent model to extract thermodynamic parameters. For tubulin binding studies, solutions were prepared in PEM buffer containing 5% (v/v) DMSO. In each experiment, 400 μL of the […] was loaded into the sample cell, and 400 μL of PEM buffer with 5% (v/v) DMSO was placed in the reference cell. Tubulin solution (180 μM) was titrated into the sample cell in 25 injections of 2 μL each at 4 °C. A control titration of tubulin into PEM buffer (5% DMSO) was performed to account for dilution effects. To assess interactions between PTP and excipients, PTP dispersions (25 μM) were loaded into the sample cell, and water was used in the reference cell. PEG400 solution (6.0 mg·mL^–1) was titrated into a 2.0 mg·mL^–1 PTP dispersion, and HA (2.7 mg·mL^–1) into a 1.0 mg·mL^–1 PTP dispersion. Both titrations were performed at 25 °C with 25 injections of 2 μL each. Control experiments were performed by titrating PEG400 or HA into water to correct for nonspecific heat effects.

[5] = test system: human lung A549 cells; assay: CCK8 antiproliferation assay, A549; format: cell-based; conditions: A549, 48 h treatment
Experimental: as §1, §2

[6] = test system: Balb/c mice; assay: Maximum tolerated dose / survival in mice; format: in vivo, mouse; conditions: iv, PTX 33.0 mg·kg^–1, after 14 days
[7] = test system: mouse breast 4T1 cells; assay: CCK8 antiproliferation assay, 4T1; format: cell-based; conditions: 4T1, 48 h treatment
Experimental: as §1, §2

SMILES: CC(=O)O[C@H]1C(=O)[C@@]2(C)[C@H]([C@H](OC(=O)c3ccccc3)[C@]3(O)C[C@H](OC(=O)[C@H](O)[C@@H](NC(=O)c4ccccc4)c4ccccc4)C(C)=C1C3(C)C)[C@]1(OC(C)=O)CO[C@@H]1C[C@@H]2O [PTX, Paclitaxel]
- MRT [1]: 4.4 h
- half-life [1]: 3.2 h
- IC50 [2]: 13.1 nM
- IC50 [3]: 37.4 nM
- molar ratio of tubulin to compound ([4]; ITC): 1.5
- Gibbs free energy change (ΔG) ([4]; 5% DMSO, 4 °C): −27.0 kJ·mol^–1
- IC50 [5]: 11.3 nM
- survival [6]: 83.3%
- IC50 [7]: 25.9 nM
